Like-named read-outs stand apart in the source and are kept apart here.
Assays:
[1] = target: T1, ATM kinase (Homo sapiens, UniProt Q13315); experiment: In vitro ATM kinase assay (Cisbio HTRF, p53 substrate); type: biochemical; conditions: 30 μM ATP; for inhibition at 0.0001 µM: Conc. 0.1 nM; for inhibition at 0.0001 µM / inhibition at 0.001 µM / inhibition at 0.01 µM: read-out: Inh % (inhibitory effect on ATM kinase activity); for inhibition at 0.001 µM: Conc. 1 nM; for inhibition at 0.01 µM: Conc. 10 nM
T1 construct: purchased Eurofins 14-933
T1 sequence (Q13315 whole entry): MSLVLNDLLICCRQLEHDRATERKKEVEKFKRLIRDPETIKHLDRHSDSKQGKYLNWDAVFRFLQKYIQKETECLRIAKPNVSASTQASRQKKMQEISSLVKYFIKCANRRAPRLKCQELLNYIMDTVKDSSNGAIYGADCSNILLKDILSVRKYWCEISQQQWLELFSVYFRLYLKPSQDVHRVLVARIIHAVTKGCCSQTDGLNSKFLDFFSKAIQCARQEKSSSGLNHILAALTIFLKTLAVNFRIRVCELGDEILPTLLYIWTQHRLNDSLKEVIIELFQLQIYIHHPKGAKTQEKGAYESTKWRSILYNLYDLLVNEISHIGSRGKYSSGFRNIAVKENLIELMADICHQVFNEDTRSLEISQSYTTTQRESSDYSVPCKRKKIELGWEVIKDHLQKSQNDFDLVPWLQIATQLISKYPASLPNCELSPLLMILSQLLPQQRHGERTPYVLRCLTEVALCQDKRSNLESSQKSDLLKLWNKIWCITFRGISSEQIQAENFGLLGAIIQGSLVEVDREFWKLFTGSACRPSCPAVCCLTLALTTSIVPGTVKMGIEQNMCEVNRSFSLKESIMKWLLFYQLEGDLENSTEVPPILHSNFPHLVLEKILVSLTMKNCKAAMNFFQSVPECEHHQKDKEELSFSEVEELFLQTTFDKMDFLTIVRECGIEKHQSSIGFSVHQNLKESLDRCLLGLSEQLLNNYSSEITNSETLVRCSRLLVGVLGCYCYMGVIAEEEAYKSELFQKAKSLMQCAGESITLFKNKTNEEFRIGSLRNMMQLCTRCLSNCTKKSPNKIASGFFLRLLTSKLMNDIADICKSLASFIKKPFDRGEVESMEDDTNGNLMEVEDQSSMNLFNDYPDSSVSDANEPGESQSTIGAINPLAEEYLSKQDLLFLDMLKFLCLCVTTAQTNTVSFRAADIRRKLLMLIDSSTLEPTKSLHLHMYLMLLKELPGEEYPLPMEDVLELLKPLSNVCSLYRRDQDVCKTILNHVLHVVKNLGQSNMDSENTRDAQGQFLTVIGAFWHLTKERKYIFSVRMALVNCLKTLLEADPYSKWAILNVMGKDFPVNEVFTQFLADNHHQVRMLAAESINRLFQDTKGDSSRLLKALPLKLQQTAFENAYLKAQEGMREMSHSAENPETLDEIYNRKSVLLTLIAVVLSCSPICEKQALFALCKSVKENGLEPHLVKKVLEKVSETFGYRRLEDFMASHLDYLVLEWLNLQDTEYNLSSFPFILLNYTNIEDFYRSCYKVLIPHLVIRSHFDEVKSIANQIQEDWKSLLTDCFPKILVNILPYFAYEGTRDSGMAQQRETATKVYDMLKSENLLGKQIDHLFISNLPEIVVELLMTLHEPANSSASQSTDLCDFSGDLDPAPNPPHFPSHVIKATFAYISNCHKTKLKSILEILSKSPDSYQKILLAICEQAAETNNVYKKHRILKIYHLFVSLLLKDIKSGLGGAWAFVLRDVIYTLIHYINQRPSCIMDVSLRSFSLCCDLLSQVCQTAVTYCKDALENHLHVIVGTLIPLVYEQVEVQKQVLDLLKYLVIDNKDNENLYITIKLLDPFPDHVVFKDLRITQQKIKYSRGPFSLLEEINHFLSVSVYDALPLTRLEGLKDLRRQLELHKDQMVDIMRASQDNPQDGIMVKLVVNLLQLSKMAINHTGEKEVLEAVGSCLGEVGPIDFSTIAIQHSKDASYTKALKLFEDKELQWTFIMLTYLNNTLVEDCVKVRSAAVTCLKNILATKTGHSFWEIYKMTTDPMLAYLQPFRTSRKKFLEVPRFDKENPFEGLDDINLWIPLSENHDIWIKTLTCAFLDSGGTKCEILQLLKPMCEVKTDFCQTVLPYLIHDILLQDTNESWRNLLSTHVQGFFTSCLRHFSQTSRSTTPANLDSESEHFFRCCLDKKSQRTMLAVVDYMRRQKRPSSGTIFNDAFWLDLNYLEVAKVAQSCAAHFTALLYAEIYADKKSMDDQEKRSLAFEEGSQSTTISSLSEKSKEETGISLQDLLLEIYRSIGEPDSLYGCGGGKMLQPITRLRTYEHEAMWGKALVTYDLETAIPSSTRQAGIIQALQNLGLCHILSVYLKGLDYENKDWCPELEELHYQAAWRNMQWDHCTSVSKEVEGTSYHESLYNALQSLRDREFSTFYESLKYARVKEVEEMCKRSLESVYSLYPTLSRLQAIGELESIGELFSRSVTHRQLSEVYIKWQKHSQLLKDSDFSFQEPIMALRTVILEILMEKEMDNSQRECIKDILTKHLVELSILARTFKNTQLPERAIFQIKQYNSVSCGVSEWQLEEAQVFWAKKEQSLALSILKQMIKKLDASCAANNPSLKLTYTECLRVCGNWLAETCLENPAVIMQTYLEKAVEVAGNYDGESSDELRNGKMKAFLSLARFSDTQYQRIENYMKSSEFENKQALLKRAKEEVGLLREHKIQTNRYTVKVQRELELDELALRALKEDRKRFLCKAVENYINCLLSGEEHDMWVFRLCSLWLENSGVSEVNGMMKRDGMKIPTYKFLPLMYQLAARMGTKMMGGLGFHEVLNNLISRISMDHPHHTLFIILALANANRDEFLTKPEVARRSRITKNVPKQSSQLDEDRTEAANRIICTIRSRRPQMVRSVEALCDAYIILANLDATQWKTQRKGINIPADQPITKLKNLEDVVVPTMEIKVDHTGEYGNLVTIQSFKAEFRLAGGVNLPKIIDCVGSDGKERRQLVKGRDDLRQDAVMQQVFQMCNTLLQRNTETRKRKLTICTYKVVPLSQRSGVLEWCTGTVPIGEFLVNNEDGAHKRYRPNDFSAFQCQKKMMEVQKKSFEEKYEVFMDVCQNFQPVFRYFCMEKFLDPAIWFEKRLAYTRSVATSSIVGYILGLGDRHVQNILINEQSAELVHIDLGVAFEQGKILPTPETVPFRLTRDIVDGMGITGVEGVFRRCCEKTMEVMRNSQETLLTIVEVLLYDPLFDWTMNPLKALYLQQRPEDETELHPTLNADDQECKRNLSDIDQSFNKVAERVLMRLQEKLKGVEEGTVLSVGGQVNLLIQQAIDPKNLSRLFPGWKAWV
Procedure: Determination of the Inhibitory Effect In Vitro of the Compound of Example 2 and its Analogues on ATM Using In Vitro ATM Kinase Assay
ATM enzymatic activity was measured using Cisbio's HTRF reagent in a 384-well plate (Greiner, #784075). […] The mixtures were centrifuged at 1000 rpm for 1 minute, and reacted in dark for 30 minutes at room temperature. Then, 5 μL of EDTA termination solution (250 mm) was added to terminate the reaction. After 5 μL of detection mixture (Anti-phospho-p53 (ser15)-K (Cisbio, #61P08KAE, 0.084 ng/μL) and Anti-GST-d2 (Cisbio, #61GSTDLA, 5.00 ng/μL)) was finally added to each well, the mixtures were cultured at room temperature over night, and the fluorescence values at 665 nm and 615 nm were measured on Envision 2104. The final concentration of each reagent of the experiment was as follows: 12.5 mM HEPES (pH8.0), 0.5% glycerol, 0.005% Brij-35, 0.625 mM DTT, 0.0125% BSA, 15 nM p53, 0.25 ng/μL ATM, 30 μM ATP, 2.5 mM Mg(AcO)2, 2.5 mM MnCl2, 62.5 mM EDTA, 0.021 ng/μL Anti-phospho-p53, 1.25 ng/μL Anti-GST-d2.
Relative fluorescence ratio was calculated: Ratio665 nm/615 nm−Ratiobackground, and inhibition rate %=(1−(relative fluorescence ratio of test compound well−relative fluorescence ratio of positive control well)/(relative fluorescence ratio of negative control well−relative fluorescence ratio of positive control well))×100 was calculated. Data were analyzed using GraphPad Prism6.0 and fitted using the curve equation: Y=Bottom+(Top−Bottom)/(1+10^((Log IC50−X)*HillSlope)), and IC50 values were calculated.

[2] = tested on: human breast cancer cell MDA-MB-468; experiment: MTT proliferation assay, MDA-MB-468; type: cell-based; conditions: Homo sapiens, MDA-MB-468, 168 h, 7 days, single agent, read-out: IC50, inhibition of proliferation of MDA-MB-468
Procedure: Determination of the Inhibitory Effect of the Compound of Example 2 and its Analogues on the Proliferation of Human Breast Cancer Cell MDA-MB-468 Using MTT Assay
The human breast cancer cells MDA-MB-468 were cultured in RPMI 1640 medium with 10% FBS and used at 90% confluence. The MDA-IVB-468 cells were digested with trypsinase and centrifuged at 800 rpm for 5 minutes. The supernatant was discarded and the cell pellets were resuspended with fresh medium and counted. Cells were seeded to 96-well cell culture plates with appropriate cell density and incubated overnight at 37° C., 5% CO2. […] 5 μL of solutions of each concentration was added to 120 μL of medium (diluted by 25 times) and mixed by shaking. The culture medium of cells cultured overnight was discarded and replaced with 195 μL/well of fresh medium (RPMI 1640+5% FBS) and 5 μL/well of diluted medium containing the test compound of corresponding concentrations (the final concentration of DMSO was 1%), and the culture plate was then returned to 5% CO2 incubator at 37° C. for 7 days (on the fourth day, dressing was changed once and culture was continued). On the day of experiment, culture medium was discarded and replaced with 100 μL/well of fresh serum-free DMEM medium containing MTT (0.5 mg/mL), and the culture was continued. After 4 hours, medium was discarded and replaced with 100 μL/well of DMSO, the plates were shaken for 10 minutes in darkness and the absorbance was measured at the wavelengths of 552 and 693 nm using a multi-function plate reader. Graph Pad Prism 6.0 was used to analyze the data. The inhibitory effects of compounds on cell proliferation were plotted based on cell viability vs. the logarithm of compound concentration. Cell viability %=(ODcompound−ODbackground)/(ODDMSO−ODbackground)×100.
Table 4 summarizes the inhibitory effect data (IC50) of some compounds on the proliferation of human breast cancer cell MDA-MB-468.

[3] = tested on: human colon cancer cell SW620; experiment: MTT proliferation assay in combination with CPT-11, SW620; type: cell-based; conditions: medium containing 205 nM CPT-11, 5 days, read-out: IC50, inhibition of proliferation of SW620 combined with CPT-11
Procedure: Determination of the Inhibitory Effect of the Compound of Example 2 and its Analogues in Combination with CPT-11 on the Proliferation of Human Colon Cancer Cell SW620 Using MTT Assay
The human colon cancer cells SW620 were cultured in RPMI 1640 medium with 10% FBS and used at about 90% confluence for experiments. The SW620 cells were digested with trypsinase and centrifuged at 800 rpm for 5 minutes. The supernatant was discarded and the cell pellets were resuspended with fresh medium (RPMI 1640+10% FBS). The cells were seeded into 96-well cell culture plates with appropriate cell density and incubated at 37° C. overnight in a 5% CO2 incubator. […] The first concentration was 1 μM or 0.333 μM, the last concentration was DMSO negative control (0 μM). 5 μL of solutions of each concentration was added to 120 μL of medium (a 25 times dilution) and mixed by shaking. The cells were cultured overnight and the culture medium was replaced with 195 μL/well of fresh medium containing 205 nM CPT-11 and 5 μL/well of medium containing the test compound (the final concentration of DMSO was 1%). The culture plates were returned to incubator and cultured at 37° C., 5% CO2 for 5 days. At the day of experiment, medium was discarded and replaced with 100 μL of fresh serum-free DMEM medium containing MTT (0.5 mg/mL), and the culture was continued. 4 hours later, the medium was discarded and replaced with 100 μL/well of DMSO, the plate was shaken for 10 minutes in dark and the absorbance was measured at the wavelengths of 552 and 690 nm using a multi-function plate reader. Data were analyzed by Graph Pad Prism 6.0. The inhibitory effects of compounds on cell proliferation were plotted based on cell viability vs. the logarithm of compound concentration. Cell viability %=(ODcompound−ODbackground)/(ODDMSO−ODbackground)×100.
Table 3 summarizes the inhibitory effect data (IC50) of some compounds combined with CPT-11 on the proliferation of human colon cancer cell SW620.

Compound | inhibition at 0.0001 µM [1] [%] | inhibition at 0.001 µM [1] [%] | inhibition at 0.01 µM [1] [%] | IC50 [2] [nM] | IC50 [3] [nM] | IC50 [1] [nM] | IC50 ([3]; Homo sapiens, SW-620, 120 h) [nM]
Cc1nc(C2CCOCC2)n2c1cnc1ccc(-c3ccc(N4CCC(N(C)C)CC4)c(Cl)c3)cc12 [Example 7, N,N-dimethyl-1-(2-chloro-4-(3-methyl-1-(tetrahydro-2H-pyran-4-yl)imidazo[1,5-a]quinoxalin-8-yl)phenyl)piperidin-4-amine] | 18 | 86 | 96 | 22.6 | 25.9 |  | 
Cc1nc(C2CCOCC2)n2c1cnc1ccc(-c3ccc(N4CCC(N(C)C)CC4)c(C(F)(F)F)c3)cc12 [Example 8] | 27 | 94 | 99 | 24.8 | 24.1 |  | 
Cc1nc(C2CCOCC2)n2c1cnc1ccc(-c3ccc(N4CCC(N)CC4)c(C(F)(F)F)c3)cc12 [Example 9, 1-(4-(3-methyl-1-(tetrahydro-2H-pyran-4-yl)imidazo[1,5-a]quinoxalin-8-yl)-2-(trifluoromethyl)phenyl)piperidin-4-amine] | 28 | 96 | 99 | 23.1 | 24 |  | 
CNC1CCN(c2ccc(-c3ccc4ncc5c(C)nc(C6CCOCC6)n5c4c3)cc2C(F)(F)F)CC1 [Example 10, N-methyl-1-(4-(3-methyl-1-(tetrahydro-2H-pyran-4-yl)imidazo[1,5-a]quinoxalin-8-yl)-2-(trifluoromethyl)phenyl)piperidin-4-amine] | 13 | 74 | 99 | 16.4 | 16.7 |  | 
CCNC1CCN(c2ccc(-c3ccc4ncc5c(C)nc(C6CCOCC6)n5c4c3)cc2C(F)(F)F)CC1 [Example 11, N-ethyl-1-(4-(3-methyl-1-(tetrahydro-2H-pyran-4-yl)imidazo[1,5-a]quinoxalin-8-yl)-2-(trifluoromethyl)phenyl)piperidin-4-amine] | 11 | 78 | 97 | 31.1 | 30 |  | 
Cc1nn(C)cc1-c1ccc2ncc3c(C)nc(C4CCOCC4)n3c2c1 [Example 13, 8-(1,3-dimethyl-1H-pyrazol-4-yl)-3-methyl-1-(tetrahydro-2H-pyran-4-yl)imidazo[1,5-a]quinoxaline] |  |  | 15 | 782 | > 1000 |  | 
Cc1nc(N2CCOCC2)n2c1cnc1ccc(-c3ccc(OCCCN(C)C)nc3)cc12 [Example 14, N,N-dimethyl-3-((5-(3-methyl-1-morpholinylimidazo[1,5-a]quinoxalin-8-yl)pyridin-2-yl)oxy)propan-1-amine] |  |  | 93 | 26 | 39.7 |  | 
Cc1nc(N2CCN(C)CC2)n2c1cnc1ccc(-c3ccc(OCCCN(C)C)nc3)cc12 [Example 17, N,N-dimethyl-3-((5-(3-methyl-1-(4-methylpiperazin-1-yl)imidazo[1,5-a]quinoxalin-8-yl)pyridin-2-yl)oxy)propan-1-amine] | 9 | 55 | 91 | 20.9 | 27.4 |  | 
Cc1nc(C(C)C)n2c1cnc1ccc(-c3ccc(OCCCN(C)C)c(F)c3)cc12 [Example 20, N,N-dimethyl-3-(2-fluoro-4-(1-isopropyl-3-methylimidazo[1,5-a]quinoxalin-8-yl)phenoxy)propan-1-amine] |  | 82 |  | 21.3 | 35.9 |  | 

Next, values leading:

inhibition at 0.0001 µM [1] [%] | inhibition at 0.001 µM [1] [%] | inhibition at 0.01 µM [1] [%] | IC50 [2] [nM] | IC50 [3] [nM] | IC50 [1] [nM] | IC50 ([3]; Homo sapiens, SW-620, 120 h) [nM] | Compound
40 | 91 | 98 | 14.4 | 15.7 |  |  | Cc1nc(C2CCOCC2)n2c1cnc1ccc(-c3ccc(OCCCN4CCCCC4)nc3)cc12 [Example 12, 3-methyl-8-(6-(3-(piperidin-1yl)propoxy)pyridin-3yl)-1-(tetrahydro-2H-pyran-4-yl)imidazo[1,5-a]quinoxaline]
 |  |  | 7.98 |  | 0.31 | 9.3 | Cc1nc(N2C[C@@H](C)O[C@@H](C)C2)n2c1cnc1ccc(-c3ccc(OCCCN(C)C)nc3)cc12 [Example 15, N,N-dimethyl-3-((5-(1-((2S,6R)-2,6-dimethylmorpholino)-3-methylimidazo[1,5-a]quinoxalin-8-yl)pyridin-2-yl)oxy)propan-1-amine]
71 | 89 | 97 | 10.6 | 8.2 |  |  | Cc1nc(N2CCCCC2)n2c1cnc1ccc(-c3ccc(OCCCN(C)C)nc3)cc12 [Example 16, N,N-dimethyl-3-((5-(3-methyl-1-(piperidin-1-yl)imidazo[1,5-a]quinoxalin-8-yl)pyridin-2-yl)oxy)propan-1-amine]
30 | 87 | 98 | 6.4 | 6.5 |  |  | Cc1nc(N2C[C@@H](C)N(C)[C@@H](C)C2)n2c1cnc1ccc(-c3ccc(OCCCN(C)C)nc3)cc12 [Example 18, N,N-dimethyl-3-((5-(3-methyl-1-((3S,5R)-3,4,5-trimethylpiperazin-1-yl)imidazo[1,5-a]quinoxalin-8-yl)pyridin-2-yl)oxy)propan-1-amine]
 | 88 |  | 11.4 | 17.6 |  |  | Cc1nc(C(C)C)n2c1cnc1ccc(-c3ccc(OCCCN(C)C)nc3)cc12 [Example 19, N,N-dimethyl-3-((5-(1-isopropyl-3-methylimidazo[1,5-a]quinoxalin-8-yl)pyridin-2-yl)oxy)propan-1-amine]
 | 67 |  | 16.4 | 29.6 |  |  | Cc1nc(C(C)C)n2c1cnc1ccc(-c3ccc(OCCCN(C)C)c(C(F)(F)F)c3)cc12 [Example 21, N,N-dimethyl-3-(4-(1-isopropyl-3-methylimidazo[1,5-a]quinoxalin-8-yl)-2-(trifluoromethyl)phenoxy)propan-1-amine]

Source: patent US12653830B2, “Substituted imidazoquinoxaline compounds and uses thereof” (Impact Therapeutics (Shanghai), Inc, priority 2019, dated 2026)
